# What was measured:
# IκB kinase ε (IKK-ε) = system: IκB kinase ε (IKK-ε); design: method as in PMID 23396208; details: cited from earlier work
# TBI rats = assay: Controlled cortical impact TBI: modified neurological severity score; type: in vivo, rat
# Procedure: This study used male Sprague-Dawley rats weighing 300-350 g and aged 8 weeks, obtained from DBL Co. (Chungcheongbuk-do, Republic of Korea). The rats were housed in a controlled environment with a temperature of 20 ± 2 °C, a relative humidity of 55 ± 5%, and a 12-hour light/dark cycle. They were provided ad libitum access to food and water. To minimize stress associated with transportation, animals underwent a one-week acclimatization period before the start of the experiments. All experimental procedures were conducted in compliance with the guidelines of the National Institutes of Health for the care and use of laboratory animals and were approved by the Hallym University Institutional Animal Care and Use Committee (protocol # Hallym 2022-23, approved on July 15, 2022). This manuscript follows the principles outlined in the Animal research: reporting in vivo experiments (ARRIVE) guidelines.
# A controlled cortical impact (CCI) model was used to induce TBI in rats. Animals were anesthetized with 1-1.5% isoflurane in a 30:70 oxygen-to-nitrous oxide mixture and securely positioned in a stereotaxic frame. […]
# The mNSS provides a quantitative measure of neurological function, with scores ranging from 0 (normal function) to 18 (severe dysfunction). The test evaluates multiple parameters to comprehensively assess neurological deficits: 1) Tail Suspension (3 points)—The rat's ability to be lifted by its tail is assessed, with higher scores indicating increased difficulty or inability to lift. 2) Balance and Posture (3 points)—The rat's ability to maintain proper posture and balance when placed on a flat surface is observed and scored. 3) Sensory Function ([…])—Sensory responses, including reactions to tactile or pain stimuli, are evaluated. 4) Beam Balance Test (6 points)—The rat's ability to walk on a narrow beam is assessed. […] 5) Reflexes and Abnormal Movements (4 points)—The presence or absence of reflexes, as well as abnormal behaviors or movements, are recorded and scored.
# [1] = system: primary hippocampal neurons; assay: Scratch injury: cell viability analysis; type: cell-based, rat; details: scratched neurons, 24 hours post-scratch, 10 μM AMX
# Procedure: Primary hippocampal neurons were obtained from embryonic day 18 (E18) Sprague-Dawley rat embryos. Pregnant rats were anesthetized using 2-3% isoflurane in a gas mixture of 70% nitrous oxide and 30% oxygen. Following euthanasia, the hippocampi were carefully dissected, minced, and enzymatically dissociated using TrypLE Express (Gibco, NY, USA) for 10 minutes at 37°C. The tissue was further mechanically dissociated using fire-polished glass pipettes, and the resulting cell suspension was filtered through a 70 μm cell strainer to remove debris. Neurons were seeded at a density of 3 × 10^5 cells per well in 24-well plates pre-coated with poly-L-lysine (Sigma-Aldrich, Saint Louis, MO, USA). Cells were maintained in neurobasal medium supplemented with B-27 (Thermo Fisher Scientific, Waltham, MA, USA), GlutaMAX (Gibco), and penicillin-streptomycin. The cultures were incubated at 37.5°C in a humidified atmosphere containing 5% CO₂. […]
# (§1) A scratch injury model was used to mimic TBI in vitro. […] After the treatment period, neuronal damage and recovery were assessed using appropriate evaluation methods.
# […] After incubation, absorbance was measured at 450 nm using a microplate reader (Spectramax, Molecular Devices Co., CA, USA). […]
# [2] = system: primary hippocampal neurons; assay: Scratch injury: lysosomal zinc (FluoZin-3 / LysoTracker); type: cell-based, rat; details: scratched neurons, 24 hours after scratch
# Procedure: Primary hippocampal neurons were obtained from embryonic day 18 (E18) Sprague-Dawley rat embryos. Pregnant rats were anesthetized using 2-3% isoflurane in a gas mixture of 70% nitrous oxide and 30% oxygen. Following euthanasia, the hippocampi were carefully dissected, minced, and enzymatically dissociated using TrypLE Express (Gibco, NY, USA) for 10 minutes at 37°C. The tissue was further mechanically dissociated using fire-polished glass pipettes, and the resulting cell suspension was filtered through a 70 μm cell strainer to remove debris. Neurons were seeded at a density of 3 × 10^5 cells per well in 24-well plates pre-coated with poly-L-lysine (Sigma-Aldrich, Saint Louis, MO, USA). Cells were maintained in neurobasal medium supplemented with B-27 (Thermo Fisher Scientific, Waltham, MA, USA), GlutaMAX (Gibco), and penicillin-streptomycin. The cultures were incubated at 37.5°C in a humidified atmosphere containing 5% CO₂. After seven days of growth, neurons were fixed with 4% paraformaldehyde (PFA) for 15 minutes at room temperature and subsequently stored at 4°C until their further use for immunostaining.
# as §1
smiles,measurement,setting,value
"CC(C)c1ccc2oc3nc(N)c(C(=O)O)cc3c(=O)c2c1 [AMX, amlexanox]",inhibition of IKK-ε,IκB kinase ε (IKK-ε),dual inhibitor
same,"beam balance test of mNSS (balance control, videos)",TBI rats; TBI-AMX vs TBI-vehicle,performed better
same,ΔmNSS,"TBI rats; between day 1 and subsequent time points, vs vehicle",greater improvements in ΔmNSS
same,mNSS scores,"TBI rats; days 1 to 7 after TBI, daily AMX 100 mg/kg i.p., vs vehicle",lower mNSS scores
same,cell viability,[1],substantially improved cell viability
same,lysosomal zinc levels (FluoZin-3 / LysoTracker),[2],restored lysosomal zinc levels to near-normal levels
